Eight compounds from patent EP4596561A1, “PHOSPHORUS-CONTAINING COMPOUND, PHARMACEUTICAL COMPOSITION AND USE THEREOF” (Suzhou Genhouse Bio Co., Ltd., priority 2022, dated 2024) can be followed below.

Structures are written as SMILES.

Series [1] concerns the target T1, Cytochrome Oxidase P450 3A4-M (Homo sapiens, UniProt P08684).
T1 construct: a biochemical reaction of prepared liver microsomes supplemented with a redox coenzyme; from tissue; host or cells: liver microsomes
Description: Inhibition of cytochrome oxidase P450. It is filed as in vitro ADME. As to conditions: liver microsomes. The method, then: (§1) Efficacy Experimental Example 5: Inhibition of Cytochrome Oxidase P450
(§2) 100 mM K-Buffer: 9.5 mL of stock solution A was mixed with 40.5 mL of stock solution B, the total volume was adjusted to […] with ultrapure water, and the buffer was titrated to pH 7.4 with KOH or H3PO4.
(§3) The test substance powder was prepared into a stock solution at a certain concentration with DMSO or another organic solvent, which was then further diluted with a suitable organic solvent.
(§4) The liver microsomal in vitro incubation system for the CYP450 enzyme metabolism phenotype study was a biochemical reaction of prepared liver microsomes supplemented with a redox coenzyme and an enzyme-specific selective inhibitor under simulated physiological temperature and environment conditions.
(§5) The concentration of the parent drug or a metabolite thereof in the incubation solution was determined by LC-MS/MS.
On the technique in general: Microsomes from liver hold many membrane-bound enzymes, among them those of drug oxidation.

Series [2] deals with T2, Cytochrome Oxidase P450 1A2 (Homo sapiens, UniProt P05177).
T2 construct: a biochemical reaction of prepared liver microsomes supplemented with a redox coenzyme; from tissue; host or cells: liver microsomes
T2 sequence (P05177 1-516): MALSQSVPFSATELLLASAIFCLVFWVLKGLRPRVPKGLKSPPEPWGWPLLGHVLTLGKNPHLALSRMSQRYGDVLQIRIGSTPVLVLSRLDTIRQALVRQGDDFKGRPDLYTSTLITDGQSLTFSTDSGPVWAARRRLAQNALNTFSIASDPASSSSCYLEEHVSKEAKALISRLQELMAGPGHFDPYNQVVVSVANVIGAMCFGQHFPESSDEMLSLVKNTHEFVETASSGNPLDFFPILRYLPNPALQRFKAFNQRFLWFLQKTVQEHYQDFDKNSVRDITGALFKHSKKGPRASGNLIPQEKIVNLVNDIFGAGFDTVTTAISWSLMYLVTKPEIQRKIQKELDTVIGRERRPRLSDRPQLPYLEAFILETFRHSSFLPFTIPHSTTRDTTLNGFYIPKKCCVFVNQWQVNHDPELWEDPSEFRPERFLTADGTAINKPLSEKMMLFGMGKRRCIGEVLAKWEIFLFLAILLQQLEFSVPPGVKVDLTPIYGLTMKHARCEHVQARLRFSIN
Put plainly: Inhibition of cytochrome oxidase P450. It is filed as in vitro ADME. As to conditions: liver microsomes. As to the method:
as §1, §2, §3, §4, §5

In series [3] the target is T3, Cytochrome Oxidase P450 2D6 (Homo sapiens, UniProt P10635).
T3 construct: a biochemical reaction of prepared liver microsomes supplemented with a redox coenzyme; from tissue; host or cells: liver microsomes
Put plainly: Inhibition of cytochrome oxidase P450. It is filed as in vitro ADME. As to conditions: liver microsomes. As to the method: as §1, §2, §3, §4, §5

Series [4] has as its system MSTO-211H (NF2 wide-type). Put plainly: Inhibition of cell proliferation (CellTiter-Lumi). It is filed as cell-based. As to conditions: Homo sapiens, 72 h + another 72 h treatment. The method, then:
NCI-H2052 (NF2 mutant), NCI-H226 (NF2 mutant), NCI-H2452 (NF2 wide-type), NCI-H28 (NF2 wide-type), and MSTO-211H (NF2 wide-type) cells were cultured in RPMI 1640 complete media.
The normally growing cells described above were digested with a trypsin cell-digesting solution, centrifuged, counted, and then plated in a 96-well plate at a density of 1000 cells per well. Administration was performed 24 h after the cell plating. Inhibitors at different concentration gradients were added at 10 µL per well, and three replicate wells were set for each concentration point. The starting concentration was 20 µM and diluted 8 times with a 4-fold gradient. A corresponding negative control group treated with 0.1% DMSO was also set up. After 72 h of drug treatment, the cell culture plate to be tested was taken out of the incubator. The culture medium in the 96-well plate was pipetted, and 190 µL of fresh RPMI 1640 complete medium was added. Another administration was performed, and the cells were cultured for another 72 h. The 96-well plate was taken out and allowed to equilibrate at room temperature for 10 min. The medium in the 96-well plate was pipetted, and 200 µL of CellTiter-Lumi™ luminescent cell viability detection solution (mixed with a medium in a ratio of 1:1) was added. After shaking for two minutes, the mixture was reacted at room temperature for 10 min. Then, 150 µL of liquid was pipetted from the transparent 96-well plate and transferred to a white 96-well plate for chemiluminescence reading. The background value was subtracted from the value for each well to calculate the cell survival rate. Survival rate (%) = […]. Sample is the chemiluminescence of the drug-treated group, and Vehicle is the […] of the DMSO control group. A sigmoidal dose-survival rate curve was plotted using a non-linear regression model in the GraphPad Prism 7.0 software, and the IC50 values or GI50 values were calculated.

Series [5] in a line: in vivo. As to conditions: mouse, plasma, po.
Description: After adding 5% DMSO, the mixture was vortexed. 15% HS15 was then added, and the mixture was vortexed again. Finally, a 10% aqueous cyclodextrin solution was added, and the resulting mixture was vortexed to prepare the final concentration solution or suspension.

T1 sequence (P08684 whole entry): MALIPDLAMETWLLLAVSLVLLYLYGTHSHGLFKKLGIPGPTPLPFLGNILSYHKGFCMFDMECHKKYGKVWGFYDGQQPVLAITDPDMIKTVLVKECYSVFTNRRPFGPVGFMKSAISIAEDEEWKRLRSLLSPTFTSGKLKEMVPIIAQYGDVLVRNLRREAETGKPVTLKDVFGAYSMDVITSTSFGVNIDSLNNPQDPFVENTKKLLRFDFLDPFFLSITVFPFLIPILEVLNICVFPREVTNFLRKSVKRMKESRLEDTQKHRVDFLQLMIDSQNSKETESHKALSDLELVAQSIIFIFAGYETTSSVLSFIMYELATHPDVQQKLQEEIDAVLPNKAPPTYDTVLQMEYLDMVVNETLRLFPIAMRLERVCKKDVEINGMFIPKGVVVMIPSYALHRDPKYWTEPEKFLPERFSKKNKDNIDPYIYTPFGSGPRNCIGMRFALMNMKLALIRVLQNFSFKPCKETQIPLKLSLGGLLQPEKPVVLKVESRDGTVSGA
T3 sequence (P10635 whole entry): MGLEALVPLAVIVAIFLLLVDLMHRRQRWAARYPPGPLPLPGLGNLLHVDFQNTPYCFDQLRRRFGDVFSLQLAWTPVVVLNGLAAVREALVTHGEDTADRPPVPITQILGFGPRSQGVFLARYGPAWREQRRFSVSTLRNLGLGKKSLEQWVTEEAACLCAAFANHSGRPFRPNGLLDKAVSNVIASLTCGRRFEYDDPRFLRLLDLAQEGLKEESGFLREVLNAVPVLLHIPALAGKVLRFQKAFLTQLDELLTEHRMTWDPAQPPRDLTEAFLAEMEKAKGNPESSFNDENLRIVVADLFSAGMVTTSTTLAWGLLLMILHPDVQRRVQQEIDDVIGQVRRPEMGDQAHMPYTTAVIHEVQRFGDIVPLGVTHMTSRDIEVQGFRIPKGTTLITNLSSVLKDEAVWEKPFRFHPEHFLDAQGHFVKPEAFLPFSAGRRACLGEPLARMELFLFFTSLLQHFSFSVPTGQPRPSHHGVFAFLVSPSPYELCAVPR

The IC50 is the point on the concentration scale where inhibition reaches its midpoint. For `CP(C)(=O)c1ccc2c(c1)c1ccccc1n2-c1ccc(C(F)(F)F)cc1` [Example 1], the IC50 in series [1], in series [2] and in series [3] was over 10 µM throughout.
Take `CP(C)(=O)c1ccc2c(c1)c1cccnc1n2-c1ccc(C(F)(F)F)cc1` [Example 5]: the IC50 in series [4] was over 5 µM.
The AUC(0-t) is the area under the concentration-time curve up to a stated or last time point. High values mean more exposure, low ones less exposure. `CP(C)(=O)c1ccc2c(Oc3ccc(C(F)(F)F)cc3)cccc2c1` [Example 7]: the AUC(0-t) in series [5] (100 mg/kg) came out at 2830 µM·h. The IC50 in series [1], in series [2] and in series [3] was over 10 µM throughout.
On to `Cn1cnc(-c2cc(P(C)(C)=O)cnc2Nc2ccc(C(F)(F)F)cc2)c1` [Example 8], for which the exposure AUC(0-t) in series [5] (200 mg/kg) came out at 2430 µM·h. In addition, the IC50 in series [1], in series [2] and in series [3] was over 10 µM in each case.
The Cmax is the maximum level reached in the sampled fluid or tissue. Take `CP(C)(=O)c1ccc(Nc2ccc(C(F)(F)F)cc2)c(-c2ccccn2)c1` [Example 10]: in series [5] (200 mg/kg), the AUC(0-t) is 3380 µM·h and the concentration peaked (Cmax) at 148 µM. For the same compound, the 50% inhibitory concentration (IC50) in series [4] is over 1.25 µM.
In the case of `CP(C)(=O)c1ccc(Nc2ccc(C(F)(F)F)cc2)c(-c2ncccn2)c1` [Example 12], the IC50 in series [4] was over 20 µM.
In series [5] (200 mg/kg), `Cn1cnc(-c2cc(P(C)(C)=O)ccc2Nc2ccc(C(F)(F)F)cc2)c1` [Example 14] returned an AUC(0-t) of 3140 µM·h. The peak concentration (Cmax) in series [5] (200 mg/kg) worked out at 141 µM. Further, the IC50 in series [1], in series [2] and in series [3] was over 10 µM each time.
In series [5] (200 mg/kg), `CP(C)(=O)c1cnc(Nc2ccc(C(F)(F)F)cc2)c(-c2cn3c(n2)CCC3)c1` [Example 22] registered an AUC(0-t) of 2520 µM·h. For the same compound, the IC50 in series [1], in series [2] and in series [3] was over 10 µM throughout.
